Experiments:
Assay in all cases: T-type calcium channel block, whole cell patch clamp in HEK cells
Type in all cases: cell-based
[1] = molecular target: T1, human α1G T-type channels (Homo sapiens, UniProt O43497); conditions: HEK cells stably expressing human α1G; measured at 1 μM drug; mainly non-inactivated protocol
T1 construct: expressed in transfected cells; host or cells: HEK 293
Experimental: (§1) T-type calcium channel blocking activity was assayed in human embryonic kidney cells, HEK 293, stably transfected with the T-type calcium channel subunits. Briefly, cells were cultured in Dulbecco's modified eagle medium (DMEM) supplemented with 10% fetal bovine serum, 200 U/ml penicillin and 0.2 mg/ml streptomycin at 37° C. with 5% CO2. At 85% confluency cells were split with 0.25% trypsin/1 mM EDTA and plated at 10% confluency on glass coverslips. At 12 hours the medium was replaced and the cells stably transfected using a standard calcium phosphate protocol and the appropriate calcium channel cDNA's. Fresh DMEM was supplied and the cells transferred to 28° C./5% CO2. Cells were incubated for 1 to 2 days prior to whole cell recording.
(§2) Standard patch-clamp techniques were employed to identify blockers of T-type currents. Briefly, previously described HEK cell lines stably expressing human α1G, α1H and α1I T-type channels were used for all the recordings (passage #: 4-20, 37° C., 5% CO2). Whole cell patch clamp experiments were performed using an Axopatch 200B amplifier (Axon Instruments, Burlingame, Calif.) linked to a personal computer equipped with pCLAMP software. Data were analyzed using Clampfit (Axon Instruments) and SigmaPlot 4.0 (Jandel Scientific). To obtain T-type currents, plastic dishes containing semi-confluent cells were positioned on the stage of a ZEISS AXIOVERT S100 microscope after replacing the culture medium with external solution (see below). Whole-cell patches were obtained using pipettes (borosilicate glass with filament, O.D.: 1.5 mm, I.D.: 0.86 mm, 10 cm length), fabricated on a SUTTER P-97 puller with resistance values of ˜5 MΩ (see below for internal solution).
(§3) In the non-inactivating protocol, the holding potential is set at −110 mV and with a pre-pulse at −100 mV for 1 second prior to the test pulse at −40 mV for 50 ms. In the inactivation protocol, the pre-pulse is at approximately −85 mV for 1 second, which inactivates about 15% of the T-type channels.
(§4) Test compounds were dissolved in external solution, 0.1-0.01% DMSO. After ˜10 min rest, they were applied by gravity close to the cell using a WPI microfil tubing. The “non-inactivated” pre-pulse was used to examine the resting block of a compound. The “inactivated” protocol was employed to study voltage-dependent block. However, the initial data shown below were mainly obtained using the non-inactivated protocol only. Kd values are shown for various compounds of the invention in Table 4 measured at 1 μM for the drug of interest except for compound 18 which was measured at 200 nM.

[2] = molecular target: T2, human α1H T-type channels (Homo sapiens, UniProt O95180); conditions: HEK cells stably expressing human α1H; measured at 1 μM drug; mainly non-inactivated protocol
T2 construct: expressed in transfected cells; host or cells: HEK 293
Experimental: as §1, §2, §3, §4

[3] = molecular target: T3, human α1I T-type channels (Homo sapiens, UniProt Q9P0X4); conditions: HEK cells stably expressing human α1I; measured at 1 μM drug; mainly non-inactivated protocol
T3 construct: expressed in transfected cells; host or cells: HEK 293
Experimental: as §1, §2, §3, §4

T2 sequence (O95180 whole entry): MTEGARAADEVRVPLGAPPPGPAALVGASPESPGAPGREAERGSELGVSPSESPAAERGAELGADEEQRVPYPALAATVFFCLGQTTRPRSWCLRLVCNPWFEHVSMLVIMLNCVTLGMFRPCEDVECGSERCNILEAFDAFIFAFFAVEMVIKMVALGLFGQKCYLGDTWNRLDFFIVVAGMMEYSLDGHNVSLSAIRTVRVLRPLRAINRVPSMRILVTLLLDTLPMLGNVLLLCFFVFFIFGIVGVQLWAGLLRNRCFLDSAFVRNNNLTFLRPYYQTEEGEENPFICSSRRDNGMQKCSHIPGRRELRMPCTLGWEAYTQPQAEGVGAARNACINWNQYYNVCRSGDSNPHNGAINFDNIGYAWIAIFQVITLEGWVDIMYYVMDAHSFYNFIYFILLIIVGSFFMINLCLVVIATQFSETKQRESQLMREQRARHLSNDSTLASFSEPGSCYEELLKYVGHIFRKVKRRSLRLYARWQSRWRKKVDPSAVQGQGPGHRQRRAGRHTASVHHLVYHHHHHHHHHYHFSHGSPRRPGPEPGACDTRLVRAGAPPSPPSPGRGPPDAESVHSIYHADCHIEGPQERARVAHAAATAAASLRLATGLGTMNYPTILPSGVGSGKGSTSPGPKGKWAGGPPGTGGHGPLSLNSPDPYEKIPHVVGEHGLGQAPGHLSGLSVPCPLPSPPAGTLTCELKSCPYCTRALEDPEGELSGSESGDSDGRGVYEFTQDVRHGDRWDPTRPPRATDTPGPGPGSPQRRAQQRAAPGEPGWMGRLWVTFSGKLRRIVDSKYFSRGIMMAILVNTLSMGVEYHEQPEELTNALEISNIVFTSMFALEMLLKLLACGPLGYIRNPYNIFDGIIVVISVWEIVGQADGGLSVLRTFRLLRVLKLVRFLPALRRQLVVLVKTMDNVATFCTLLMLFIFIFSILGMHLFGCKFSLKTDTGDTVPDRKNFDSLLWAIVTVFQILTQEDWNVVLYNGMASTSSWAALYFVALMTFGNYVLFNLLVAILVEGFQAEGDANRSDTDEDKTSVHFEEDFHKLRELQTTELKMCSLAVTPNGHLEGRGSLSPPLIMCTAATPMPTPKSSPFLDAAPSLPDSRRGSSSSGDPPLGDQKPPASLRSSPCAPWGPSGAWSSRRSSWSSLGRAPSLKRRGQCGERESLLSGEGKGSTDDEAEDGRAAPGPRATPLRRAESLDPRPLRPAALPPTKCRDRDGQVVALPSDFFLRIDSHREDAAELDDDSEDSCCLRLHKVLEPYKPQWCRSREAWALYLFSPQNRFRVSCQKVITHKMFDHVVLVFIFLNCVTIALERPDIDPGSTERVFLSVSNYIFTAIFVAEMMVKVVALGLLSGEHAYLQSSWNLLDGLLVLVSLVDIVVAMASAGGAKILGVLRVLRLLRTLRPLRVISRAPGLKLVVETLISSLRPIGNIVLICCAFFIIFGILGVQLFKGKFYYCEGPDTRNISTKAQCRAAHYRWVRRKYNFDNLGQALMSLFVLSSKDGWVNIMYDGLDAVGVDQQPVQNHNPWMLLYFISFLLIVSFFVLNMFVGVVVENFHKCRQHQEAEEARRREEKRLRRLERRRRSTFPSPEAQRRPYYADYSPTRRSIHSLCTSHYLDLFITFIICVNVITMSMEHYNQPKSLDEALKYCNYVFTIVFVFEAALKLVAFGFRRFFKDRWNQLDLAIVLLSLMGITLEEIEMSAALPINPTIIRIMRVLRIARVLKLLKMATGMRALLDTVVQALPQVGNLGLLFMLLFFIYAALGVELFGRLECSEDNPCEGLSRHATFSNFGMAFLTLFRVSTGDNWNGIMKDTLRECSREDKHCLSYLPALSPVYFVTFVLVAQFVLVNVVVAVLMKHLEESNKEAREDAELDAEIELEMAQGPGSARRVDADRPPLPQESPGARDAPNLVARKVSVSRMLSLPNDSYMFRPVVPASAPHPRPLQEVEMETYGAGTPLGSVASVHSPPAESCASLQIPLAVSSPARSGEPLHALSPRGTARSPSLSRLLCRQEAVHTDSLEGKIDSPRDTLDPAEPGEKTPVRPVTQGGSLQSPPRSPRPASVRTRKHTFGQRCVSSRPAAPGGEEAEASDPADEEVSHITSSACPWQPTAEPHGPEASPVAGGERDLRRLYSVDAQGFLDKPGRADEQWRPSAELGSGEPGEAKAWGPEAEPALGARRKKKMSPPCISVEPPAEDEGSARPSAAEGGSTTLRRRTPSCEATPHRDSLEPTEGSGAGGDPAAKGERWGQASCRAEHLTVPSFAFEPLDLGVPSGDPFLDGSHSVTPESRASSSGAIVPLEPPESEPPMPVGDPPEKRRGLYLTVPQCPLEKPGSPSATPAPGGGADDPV
T3 sequence (Q9P0X4 whole entry): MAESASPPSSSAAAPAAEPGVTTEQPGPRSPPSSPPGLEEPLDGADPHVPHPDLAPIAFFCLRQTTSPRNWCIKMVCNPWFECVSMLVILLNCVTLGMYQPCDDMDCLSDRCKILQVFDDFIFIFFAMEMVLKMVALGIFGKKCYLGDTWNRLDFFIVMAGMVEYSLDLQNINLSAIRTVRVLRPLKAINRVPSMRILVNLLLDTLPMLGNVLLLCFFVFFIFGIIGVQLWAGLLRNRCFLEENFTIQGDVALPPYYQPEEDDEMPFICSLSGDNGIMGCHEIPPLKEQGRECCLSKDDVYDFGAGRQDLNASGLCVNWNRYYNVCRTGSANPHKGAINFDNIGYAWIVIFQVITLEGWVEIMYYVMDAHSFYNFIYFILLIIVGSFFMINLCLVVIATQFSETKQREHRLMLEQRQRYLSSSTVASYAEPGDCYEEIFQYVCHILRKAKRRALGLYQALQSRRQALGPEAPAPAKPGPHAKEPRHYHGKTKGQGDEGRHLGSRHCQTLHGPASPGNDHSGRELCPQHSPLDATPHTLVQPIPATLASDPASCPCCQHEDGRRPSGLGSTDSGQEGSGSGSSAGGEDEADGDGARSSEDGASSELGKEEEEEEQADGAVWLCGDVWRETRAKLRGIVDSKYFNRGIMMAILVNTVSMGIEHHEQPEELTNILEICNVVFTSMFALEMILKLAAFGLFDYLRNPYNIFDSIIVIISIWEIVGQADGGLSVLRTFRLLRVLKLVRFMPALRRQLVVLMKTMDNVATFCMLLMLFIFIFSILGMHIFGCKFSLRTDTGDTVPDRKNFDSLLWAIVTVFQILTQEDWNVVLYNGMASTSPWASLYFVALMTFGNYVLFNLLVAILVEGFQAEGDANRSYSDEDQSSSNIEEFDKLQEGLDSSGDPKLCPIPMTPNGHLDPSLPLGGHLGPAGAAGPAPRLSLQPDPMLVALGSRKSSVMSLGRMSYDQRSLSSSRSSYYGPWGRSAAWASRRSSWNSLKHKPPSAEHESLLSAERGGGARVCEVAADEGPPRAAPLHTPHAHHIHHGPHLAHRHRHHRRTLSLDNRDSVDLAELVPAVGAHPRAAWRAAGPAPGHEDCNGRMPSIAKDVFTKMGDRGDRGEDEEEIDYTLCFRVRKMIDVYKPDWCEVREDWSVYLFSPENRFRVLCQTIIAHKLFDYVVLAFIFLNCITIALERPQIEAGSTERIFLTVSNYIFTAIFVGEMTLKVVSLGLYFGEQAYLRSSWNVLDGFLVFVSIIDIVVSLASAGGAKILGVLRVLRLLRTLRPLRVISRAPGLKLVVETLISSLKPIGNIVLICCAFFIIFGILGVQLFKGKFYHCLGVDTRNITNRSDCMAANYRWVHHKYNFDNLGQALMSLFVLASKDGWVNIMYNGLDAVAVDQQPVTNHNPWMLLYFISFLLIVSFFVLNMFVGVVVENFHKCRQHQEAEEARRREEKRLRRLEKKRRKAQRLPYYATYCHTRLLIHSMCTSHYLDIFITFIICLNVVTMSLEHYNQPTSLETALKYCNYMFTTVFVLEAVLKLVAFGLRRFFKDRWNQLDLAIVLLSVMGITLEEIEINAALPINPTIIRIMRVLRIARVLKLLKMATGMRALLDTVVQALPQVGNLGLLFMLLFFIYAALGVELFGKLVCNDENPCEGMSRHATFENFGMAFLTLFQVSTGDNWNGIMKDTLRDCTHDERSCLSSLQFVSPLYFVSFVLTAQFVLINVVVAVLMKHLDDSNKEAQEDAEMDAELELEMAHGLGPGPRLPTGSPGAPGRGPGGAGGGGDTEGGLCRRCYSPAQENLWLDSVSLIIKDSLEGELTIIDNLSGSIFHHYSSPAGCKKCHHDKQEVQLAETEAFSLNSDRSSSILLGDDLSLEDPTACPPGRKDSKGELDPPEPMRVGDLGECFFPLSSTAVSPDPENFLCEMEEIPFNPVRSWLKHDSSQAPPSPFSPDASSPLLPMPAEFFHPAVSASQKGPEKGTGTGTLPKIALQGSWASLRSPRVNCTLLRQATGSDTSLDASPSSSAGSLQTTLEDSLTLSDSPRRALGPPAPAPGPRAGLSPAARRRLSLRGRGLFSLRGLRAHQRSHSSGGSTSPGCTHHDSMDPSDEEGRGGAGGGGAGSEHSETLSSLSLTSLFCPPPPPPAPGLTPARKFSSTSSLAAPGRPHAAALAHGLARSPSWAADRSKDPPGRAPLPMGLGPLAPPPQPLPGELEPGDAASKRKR

Kd [1] [nM] | Kd [2] [nM] | Kd [3] [nM] | SMILES
290 | 800 | 340 | Cc1c(C(=O)N2CCN(c3ccccc3F)CC2)sc2ncn(CC(=O)Nc3cccc(C(F)(F)F)c3)c(=O)c12 [Compound 62, 2-(6-(4-(2-fluorophenyl)piperazine-1-carbonyl)-5-methyl-4-oxothieno[2,3-d]pyrimidin-3(4H)-yl)-N-(3-(trifluoromethyl)phenyl)acetamide]
570 | 280 | 3840 | Cc1c(C(=O)N2CCN(c3ccc(Cl)cc3)CC2)sc2ncn(CC(=O)NC3CCCC3)c(=O)c12 [Compound 42, 2-(6-(4-(4-chlorophenyl)piperazine-1-carbonyl)-5-methyl-4-oxothieno[2,3-d]pyrimidin-3(4H)-yl)-N-cyclopentylacetamide]
300 | 90 | 1520 | Cc1c(C(=O)N2CCN(c3cccc(Cl)c3)CC2)sc2ncn(CC(=O)NC3CCCCC3)c(=O)c12 [Compound 24, 2-(6-(4-(3-chlorophenyl)piperazine-1-carbonyl)-5-methyl-4-oxothieno[2,3-d]pyrimidin-3(4H)-yl)-N-cyclohexylacetamide]
1260 | 280 | 3270 | Cc1c(C(=O)N2CCN(c3ccccc3F)CC2)sc2ncn(CC(=O)NC3CCCCC3)c(=O)c12 [Compound 23, N-cyclohexyl-2-(6-(4-(2-fluorophenyl)piperazine-1-carbonyl)-5-methyl-4-oxothieno[2,3-d]pyrimidin-3(4H)-yl)acetamide]
360 | 180 | 4990 | Cc1c(C(=O)N2CCN(c3cccc(Cl)c3)CC2)sc2ncn(CC(=O)Nc3ccc(F)cc3F)c(=O)c12 [Compound 140, 2-(6-(4-(3-chlorophenyl)piperazine-1-carbonyl)-5-methyl-4-oxothieno[2,3-d]pyrimidin-3(4H)-yl)-N-(2,4 difluorophenyl)acetamide]
610 | 190 | 5200 | Cc1c(C(=O)N2CCN(c3cccc(F)c3)CC2)sc2ncn(CC(=O)NC3CCCCC3)c(=O)c12 [Compound 21, N-cyclohexyl-2-(6-(4-(3-fluorophenyl)piperazine-1-carbonyl)-5-methyl-4-oxothieno[2,3-d]pyrimidin-3(4H)-yl)acetamide]
450 | 540 |  | CCN(CC)C(=O)Cn1cnc2sc(C(=O)N3CCN(c4ccc(Cl)c(C(F)(F)F)c4)CC3)c(C)c2c1=O [Compound 8, 2-(6-(4-(4-chloro-3-(trifluoromethyl)phenyl)piperazine-1-carbonyl)-5-methyl-4-oxothieno[2,3-d]pyrimidin-3(4H)-yl)-N,N-diethylacetamide]
630 | 420 |  | Cc1c(C(=O)N2CCN(c3ccccc3F)CC2)sc2ncn(CC(=O)N3CCC(C(F)(F)F)CC3)c(=O)c12 [Compound 89, 6-(4-(2-fluorophenyl)piperazine-1-carbonyl)-5-methyl-3-(2-oxo-2-((4-trifluoromethyl)piperidin-1-yl)ethyl) thieno[2,3-d]pyrimidin-4(3H)-one]
1800 | > 8440 |  | Cc1c(C(=O)N2CCN(c3ccc(F)c(Cl)c3)CC2)sc2ncn(CC(=O)N3CC[C@H](F)C3)c(=O)c12 [Compound 137, (S)-6-(4-(3-chloro-4-fluoro-phenyl)piperazine-1-carbonyl)-3-(2-(3-fluoro-pyrrolidin-1-yl)-2-oxoethyl)-5-methyl-thieno[2,3-d]pyrimidin-4(3H)-one]
1160 | 700 |  | Cc1c(C(=O)N2CCN(c3ccccc3F)CC2)sc2ncn(CC(=O)Nc3ccc(C(F)(F)F)cc3)c(=O)c12 [Compound 142, 2-(6-(4-(2-fluorophenyl)piperazine-1-carbonyl)-5-methyl-4-oxothieno[2,3-d]pyrimidin-3(4H)-yl)-N-(4-(trifluoromethyl)phenyl)acetamide]
